# Reference: US12371454B2, “Cyclic peptide compound having Kras inhibitory action” (priority 2019, dated 2025)
# pIC50: −log10 of the molar value. Starred links: 1 amine or outer side, 2 acyl side, 3 side chain; linkers in the order of their positions; H or OH if unused. Positions of bridges follow the written chain, without caps; N, C: chain ends. Non-standard residues stand in square brackets, D forms with d. Residues, ends and D or L forms follow the SMILES beside them. *: point of attachment. hPhe(3-Cl-4-CF3) = N[C@@H](CCc1ccc(C(F)(F)F)c(Cl)c1)C(=O)O; NMePhe(4-CF3) = CN[C@@H](Cc1ccc(C(F)(F)F)cc1)C(=O)O; NEtPhe(4-Cl) = CCN[C@@H](Cc1ccc(Cl)cc1)C(=O)O; X35 = CN([C@@](C)(Cc1ccccc1)C(=O)[*:2])[*:1]; NMeGly(cPent) = CN[C@H](C(=O)O)C1CCCC1; Phe(3-I) = N[C@@H](Cc1cccc(I)c1)C(=O)O; NMeY = CN[C@@H](Cc1ccc(O)cc1)C(=O)O; NMeCha = CN[C@@H](CC1CCCCC1)C(=O)O; N(isopentyl)Gly = CC(C)CCNCC(=O)O; NMeCba = CN[C@@H](CC1CCC1)C(=O)O; NMeD = CN[C@@H](CC(=O)O)C(=O)O; NMeL = CN[C@@H](CC(C)C)C(=O)O; NMeV = CN[C@H](C(=O)O)C(C)C; d(β3hA) = C[C@@H](N)CC(=O)O; Azetidin(1-yl) = C1CN(*)C1; Pip = O=C(O)[C@@H]1CCCCN1; NMeA = CN[C@@H](C)C(=O)O; NMeAib = CNC(C)(C)C(=O)O; Nle = CCCC[C@H](N)C(=O)O; Piperidide = C1CCN(*)CC1; Pra = C#CC[C@H](N)C(=O)O; Ac5c = NC1(C(=O)O)CCCC1; Aze = O=C(O)[C@@H]1CCN1; Sar = CNCC(=O)O
# Target: T1, Kras and SOS1 (biotin-tagged human Kras loaded with GDP, His-tagged human SOS1) (Homo sapiens, UniProt P01116, G12D)
# T1 construct: made in house; host or cells: E. coli (stated for Kras only)
# T1 sequence (P01116 1-188 isoform P01116-2 G12D): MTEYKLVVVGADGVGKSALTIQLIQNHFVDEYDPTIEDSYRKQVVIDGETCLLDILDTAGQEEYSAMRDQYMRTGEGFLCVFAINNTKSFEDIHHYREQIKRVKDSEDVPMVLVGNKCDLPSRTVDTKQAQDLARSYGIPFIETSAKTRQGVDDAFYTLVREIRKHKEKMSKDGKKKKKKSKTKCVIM
# Experiment: Protein-protein interaction inhibition between Kras and SOS1 (KrasGl2D-SOS PPI) using AlphaScreen
# Format: binding
# Conditions: AlphaScreen; biotin-tagged human Kras loaded with GDP, His-tagged human SOS1; read-out: KRAS G12D-SOS PPI IC50
# Method in brief: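 Binding between SOS1 and Kras is detected as bead-proximity luminescence: illuminate Ni-conjugated donors (680 nm), collect 520-620 nm emission from streptavidin-conjugated acceptors; Kras carries biotin and GDP loaded after purification, SOS1 carries a His tag.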
row,SMILES,pIC50
1,CC[C@H](C)[C@@H]1NC(=O)[C@H](CC(C)C)N(C)C(=O)C[C@@H](C)NC(=O)[C@H](C(C)C)N(C)C(=O)C2(CCCC2)NC(=O)[C@@H]2CCCN2C(=O)[C@H](CCc2ccc(C(F)(F)F)c(Cl)c2)NC(=O)CN(C)C(=O)[C@H](CC2CCCCC2)N(C)C(=O)CN(CCC(C)C)C(=O)CN(C)C1=O [Compound 801] (cyclo([Ac5c][NMeV][d(β3hA)][NMeL]I[Sar][N(isopentyl)Gly][NMeCha][Sar][hPhe(3-Cl-4-CF3)]P)),6.35
2,CC[C@H](C)[C@@H]1NC(=O)[C@H](CC(C)C)N(C)C(=O)C[C@@H](C)NC(=O)[C@H](CC2CCC2)N(C)C(=O)C2(CCCC2)NC(=O)[C@@H]2CCCN2C(=O)[C@H](CCc2ccc(C(F)(F)F)c(Cl)c2)NC(=O)CN(C)C(=O)[C@H](CC2CCCCC2)N(C)C(=O)CN(C)C(=O)CN(C)C1=O [Compound 59] (cyclo([Ac5c][NMeCba][d(β3hA)][NMeL]I[Sar][Sar][NMeCha][Sar][hPhe(3-Cl-4-CF3)]P)),7.44
3,CC[C@H](C)[C@@H]1NC(=O)[C@H](CC(C)C)N(C)C(=O)C[C@@H](C(=O)N2CCC2)N(C)C(=O)[C@H](C2CCCC2)N(C)C(=O)C2(CCCC2)NC(=O)[C@@H]2CCCN2C(=O)[C@H](CCc2ccc(C(F)(F)F)c(Cl)c2)NC(=O)CN(C)C(=O)[C@H](CC2CCCCC2)N(C)C(=O)[C@@H]2CCN2C(=O)[C@H](C)N(C)C1=O [Compound 515] ([NMeL]I[NMeA][Aze][NMeCha][Sar][hPhe(3-Cl-4-CF3)]P[Ac5c][NMeGly(cPent)][NMeD]-{Azetidin(1-yl)}; lactam N-11),9.26
4,CC[C@H](C)[C@@H]1NC(=O)[C@@H]2CCCCN2C(=O)C[C@@H](C)NC(=O)[C@H](CC(C)C)N(C)C(=O)C2(CCCC2)NC(=O)[C@H](CC(C)C)N(C)C(=O)[C@H](CCc2ccc(C(F)(F)F)c(Cl)c2)NC(=O)CN(C)C(=O)[C@H](CC2CCCCC2)N(C)C(=O)CN(C)C(=O)CN(C)C1=O [Compound 213] (cyclo([Ac5c][NMeL][d(β3hA)][Pip]I[Sar][Sar][NMeCha][Sar][hPhe(3-Cl-4-CF3)][NMeL])),7.32
5,CCCC[C@@H]1NC(=O)[C@H](Cc2cccc(I)c2)NC(=O)CN(C)C(=O)[C@H](Cc2ccc(Cl)cc2)N(CC)C(=O)CN(C)C(=O)CN(C)C(=O)[C@H]([C@@H](C)CC)NC(=O)[C@H](CC(C)C)N(C)C(=O)C[C@@H](C(=O)N2CCCCC2)N(C)C(=O)[C@H](CC(C)C)NC(=O)C(C)(C)N(C)C1=O [Compound 423] ([NMeL]I[Sar][Sar][NEtPhe(4-Cl)][Sar][Phe(3-I)][Nle][NMeAib]L[NMeD]-Piperidide; lactam N-11),7.19
6,C#CC[C@@H]1NC(=O)[C@H](Cc2cccc(I)c2)NC(=O)CN(C)C(=O)[C@H](Cc2ccc(C(F)(F)F)cc2)N(C)C(=O)[C@@H]2CCN2C(=O)[C@H](C)N(C)C(=O)[C@H]([C@@H](C)CC)NC(=O)[C@H](CC(C)C)N(C)C(=O)C[C@@H](C(=O)N2CCCCC2)N(C)C(=O)[C@H](CC(C)C)NC(=O)C(C)(C)N(C)C1=O [Compound 1258] ([NMeL]I[NMeA][Aze][NMePhe(4-CF3)][Sar][Phe(3-I)][Pra][NMeAib]L[NMeD]-Piperidide; lactam N-11),7.59
7,CCCC[C@@H]1NC(=O)[C@H](Cc2cccc(I)c2)NC(=O)CN(C)C(=O)[C@H](Cc2ccc(OC)cc2)N(C)C(=O)CN(C)C(=O)CN(C)C(=O)[C@H]([C@@H](C)CC)NC(=O)[C@H](CC(C)C)N(C)C(=O)C[C@@H](C(=O)N2CCCCC2)N(C)C(=O)[C@H](CC(C)C)NC(=O)[C@](C)(Cc2ccccc2)N(C)C1=O [Compound 125] ([NMeL]I[Sar][Sar][NMeY](Me)[Sar][Phe(3-I)][Nle][X35]L[NMeD]-Piperidide; lactam N-11),8.55
